Here are results for two substances from US11472844B2, “Peptidomimetics, method of synthesis and uses thereof” (priority 2017, dated 2022).

Series [1] has as its system mucus produced by human cell lines (L174T). The experiment in a line: Binding to mucus produced by human cell lines. Type of series: cell-based.
The test system of series [2] is human neutrophil granules. The series can be described thus: Fluorescent labelling of fixed purified human neutrophils. Type of series: cell-based. The following applies: 1 μg/mL. As to the method:
(§1) Fixation and staining procedures. For microscopy studies, purified or cultured cells and polymerized lactoferrin were resuspended onto 24-well plates containing 12 mm coverslips in RMPI 1640+10 mM Hepes (when cultured in the autologous plasma) and centrifuged at 300×g for 10 min. Culture media were removed and cells were fixed in 4% Paraformaldehyde (PFA) for two hours. Fixed cells were washed three times in PBS+0.1% saponin (Sigma-Aldrich), prior immunolabeling with primary antibodies in the same buffer for 1 hour (Triton 0.1% can alternatively be used for cell permeabilization). After three additional washes in PBS+0.1% saponin, secondary antibodies and fluorescent markers were incubated for one hour. Coverslips were washed three time in PBS+0.1% saponin, three times in PBS, and three times in deionized H2O and mounted with prolong gold^tm mounting media.
(§2) Antibodies, fluorescent markers. For immunofluorescence assay, lactoferrin was detected with a mouse anti-lactoferrin primary monoclonal antibody (Hycult biotech, clone 265-1K1, 1:50 dilution) and an anti-mouse-FITC conjugated secondary antibody (1:1000). Nuclei were detected with DAPI (Life Technologies), Lyophilized MUB40 peptides (MUB40#1 (SEQ ID NO: 3)-Cy5, MUB40#2 (SEQ ID NO: 4)-Cy5, MUB40#3 (SEQ ID NO: 5)-Cy5, MUB40#4 (SEQ ID NO: 6)-Cy5, MUB40#1 (SEQ ID NO: 3)-Dylight, RI-MUB40 (SEQ ID NO: 2)-Cy5, and RI-MUB40 (SEQ ID NO: 2)-Biotin) were solubilized in a phosphate buffer pH8 at a 1 mg/mL concentration and used at a 1:1000 dilution. For PBMC staining CD19-APC (B lymphocytes), CD3-APC (T lymphocytes), and CD14-PercP (monocytes, macrophages) (BD Bioscience) were used at a 1:1000 dilution together with Dapi (1:1000) and MUB40-Cy5 (1 mg/mL). Actin was stained with Phalloidin-Rhodamine red X (RRX) (Jackson Immunoresearch Antibodies) used at a 1:1000 final dilution.
Polymorphonuclear neutrophils purification. Human polymorphonuclear neutrophils were purified as described previously (Monceaux et al. 2016). Briefly, plasma was removed by centrifugation (450×g, 15 min); blood cells were resuspended in 0.9% NaCl solution supplemented with 0.72% Dextran. After red blood cells sedimentation, white blood cells were pelleted and further separated on a two layer Percoll (GE Healthcare) (51%−42%) by centrifugation (at 240×g, 20 min). PBMC (top layer) were isolated from polymorphonuclear neutrophils (bottom layer). Red blood cells were removed from the latter fraction using CD235a (glycophorin) microbeads (negative selection) (Miltenyi Biotec). PBMCs and polymorphonuclear neutrophils were resuspended in the autologous plasma. Guinea pig and mouse polymorphonuclear neutrophils were purified with the same procedure.
Confocal microscopy. […]

A further series concerns living human neutrophils. The series can be described thus: Live microscopy of neutrophils infected with Shigella flexneri. Type of series: cell-based. The protocol: Neutrophil infection. Human purified neutrophils were cultured in glass-bottom dishes (Mattek) for live fluorescent microscopy in a RMPI 1640 (Life Technologies) culture medium supplemented with 10% of heat inactivated Human Serum (Sigma-Aldrich). Neutrophils (5.10^5 cell/mL in 2 mL) were infected with exponentially-grown Shigella flexneri 5a pGFP at a Multiplicity Of Infection (MOI) 20 in RMPI 1640 (Life Technologies) culture medium supplemented with 10 mM Hepes (Life Technologies) at 37° C. Infected neutrophils were centrifuged at 2000 rpm for 10 min prior imaging.
Live epifluorescence microscopy. Viable neutrophils infected with S. flexneri pGFP were imaged on a Definite focus live microscope (Zeiss) equipped with a temperature control chamber (37° C.) and a 63× oil immersion objective. Images were acquired every 60 s. Z-stack images were taken with […] step-size increments. Obtained Z-stack images were processed with Fiji software to generate a Movie and the corresponding extracted images are shown in FIG. 16a.

Series [3] deals with inflammatory sites, localized in joints. The experiment in a line: Mouse arthritis model (K/B×N serum transfer), in vivo epifluorescence imaging. As to the method: Mouse arthritis model. 6-7 weeks old female C57BL/6J mice were purchased from Charles River France, housed under specific pathogen-free (SPF) conditions and handled in accordance with French and European directives. Mouse protocols were approved by the Animal Ethics committee CETEA number 89 (Institut Pasteur, Paris, France) and registered under #2013-0103, and by the French Ministry of Research under agreement #00513.02. Arthritis was induced by i.v. injection of 120 μL K/B×N serum and arthritis scored as described previously (Bruhns et al. 2003). Mice injected with physiological saline were used as controls. On day 6 after serum transfer, mice were anesthetized, shaved, depilated and injected i.p. with luminol (10 mg/mouse) and i.v. with 5 μg/mouse MUB-40 Cy5. Epifluorescence, bioluminescence and CT images were acquired 10-90 min after injection using an IVIS SpectrumCT (Perkin Elmer).

For another series, the target named is trypsin (Sus scrofa, UniProt P00761). The settings on record: trypsin digestion, 37°C, pH8, followed up to 24 h. The protocol:
Trypsin proteolysis. MUB40 (SEQ ID NO: 3)-Cy5 and RI-MUB40 (SEQ ID NO: 2)-Cy5 were dissolved in 50 mM ammonium bicarbonate, pH 8. Prior to digestion and owing to the propensity of maleimide derivatives to undergo ring-opening in a basic environment (Fontaine et al., 2015), we incubated both peptides at 37° C. overnight. Ring-opening completion was checked before trypsin addition. […] Lyophilized trypsin (Thermo scientific) was reconstituted using 50 mM acetic acid, diluted with 50 mM ammonium bicarbonate and added to the peptide solution so as to obtain a final peptide concentration of 0.25 mg/mL and a protease to protein ratio of 1:20 (w/w). Samples were directly incubated on the injection sampler thermostated at 37° c. HPLC and LC-MS analyses were performed as previously described above, applying a 15% to 40% linear gradient of acetonitrile in 10 mM ammonium acetate over 20 minutes.
Hydrolysis experiments were done in solution at 37° c., pH8 and monitored by HPLC by measuring the peak area of the remaining intact peptides.

Series [4] deals with hind and front inflamed ankles. The series can be described thus: K/B×N mice, ankle fluorescence imaging after intravenous injection. Type of series: in vivo, mouse. The following applies: 2 days post i.v. injection of 0.9 nmoles; p<0.01 vs MUB40-Cy5, p<0.001 vs Cy5 only. The text has this: (A) Ankles of K×B/N mice were imaged 2 Days after intravenous injection of 0.9 nmoles of RI-MUB40-Cy5 (SEQ ID NO: 2), MUB40-Cy5 (SEQ ID NO: 3) or Cy5 only. Fluorescence was quantified at the level of front or hind ankles (in ROI, as indicated).
(B) Quantification of the fluorescent signal associated with RI-MUB40 (SEQ ID NO: 2)-Cy5, MUB40 (SEQ ID NO: 3)-Cy5 or Cy5 accumulation at hind and front ankles (top) or hind ankles only (bottom). Results are average from at least three animals. ** indicates p<0.01 and *** indicates p<0.001 (Student's T-test).

Another series deals with human colonic mucus. The series can be described thus: Fluorescent labelling of human colonic mucus layer. The settings on record: 1 μg/mL. It is filed as binding. The protocol: Colon explant surgical collection. In summary, human colon segments (ascending, descending, and sigmoid colon) were obtained from fully informed patients undergoing surgery for colon carcinoma and were analyzed anonymously. Patient written consent was obtained, according to the French bioethics law. None of the patients had undergone radiotherapy or chemotherapy. According to the pathologist's examination rules for the longitudinally bisected colon, a healthy segment of tissue, which was distant from the tumor region and devoid of metastatic cells, was removed. Tissues were processed according to the French Government guidelines for research on human tissues and the French Bioethics Act with the authorization no RBM 2009-50.
as §1, with “Coverslips were washed three time in PBS+0.1% saponin, three times in PBS, and three times in deionized H2O and mounted with prolong gold^tm mounting media.” left out
as §2, with “For PBMC staining CD19-APC (B lymphocytes), CD3-APC (T lymphocytes), and CD14-PercP (monocytes, macrophages) (BD Bioscience) were used at a 1:1000 dilution together with Dapi (1:1000) and MUB40-Cy5 (1 mg/mL). Actin was stained with Phalloidin-Rhodamine red X (RRX) (Jackson Immunoresearch Antibodies) used at a 1:1000 final dilution.” left out

Series [5] concerns neutrophils recruited to guinea pig colonic mucosa infected with Shigella flexneri. The series can be described thus: Guinea pig model of shigellosis, staining of fixed colon sections. The settings on record: guinea pig colon, Shigella flexneri, 1 μg/ml. As to the method:
Guinea pig. The experimental protocol was approved by the french Ethic Committee Paris (n° 20140069, 2014). Young guinea pigs (Hartley, <150 g, Charles River) were anaesthetized and infected intrarectally with 10^9 CFU exponentially grown Shigella flexneri 5a (M90T) pGFP as previously described (Shim et al. 2007) (Monceaux et al. 2016). Infection occurred during 8 hours before animals were sacrificed and infected colons collected and fixed in 4% Paraformaldehyde (PFA) for two hours. For immunohistochemical staining, infected guinea pig colon samples were washed in PBS and incubated at 4° C. in PBS containing 16% sucrose for 4 hours, followed by incubation in PBS with 30% sucrose overnight. Samples were frozen in OCT (VWR 361603E) on dry ice. Frozen blocks were stored at −80 until sectioning. 10 to 30 μm sections were obtained using a cryostat CM-3050S (Leica). Tissue slices were labeled in PBS+0.1% saponin (Sigma-Aldrich) with MUB40-Cy5 or MUB40-Dylight (1 μg/ml) to localize recruited neutrophils. Slides were washed three time in PBS+0.1% saponin, three times in PBS, and three times in deionized H2O and mounted with prolong gold^tm mounting media.

For series [6], the system named is neutrophils recruited to rabbit ileum infected with Shigella flexneri. The series can be described thus: Rabbit ligated loop model of shigellosis, staining of fixed ileum sections. The following applies: 1 μg/mL. As to the method: Rabbit. The experimental protocol was approved by the french Ethic Committee Paris 1 (number 20070004, December 9th 2007). New Zealand White rabbits weighting 2.5-3 kg (Charles River) were used for experimental infections. For each animal, up to 12 intestinal ligated loops, each 5 cm in length, were prepared as described previously (Jones et al. 2007; Martinez et al. 1988; West et al. 2005) and infected with 10^5 CFU S. flexneri pGFP per loop. After 16 h, animals were sacrificed and collected tissue were fixed in 4% Paraformaldehyde (PFA) for two hours. For immunohistochemical staining, infected rabbit ileum samples were washed in PBS, incubated at 4° C. PBS containing 12% sucrose for 90 min, then in PBS with 18% sucrose overnight, and frozen in OCT (Sakura) on dry ice. 7 μm sections were obtained using a cryostat CM-3050 (Leica). Fluorescent staining was performed in PBS+0.1% saponin using Phalloidin-RRX (1:1000 dilution) to stain Actin, MUB40-Cy5 (1 μg/mL) and a mouse anti-lactoferrin primary monoclonal antibody (Hycult biotech, clone 265-1K1, 1:50 dilution) and an anti-mouse-FITC conjugated secondary antibody (1:1000) to stain infiltrated neutrophils. Slides were washed three time in PBS+0.1% saponin, three times in PBS, and three times in deionized H2O and mounted with prolong gold^tm mounting media.

Entries after “also recorded” stand apart in the source; their conditions may differ. Non-standard residues stand in square brackets, D forms with d. No end group written: not given here. *: point of attachment. X1 = CC[N+]1=C(/C=C/C=C/C=C2N(CCCCCC(=O)NCCN3C(=O)CC(*)C3=O)c3ccc(S(=O)(=O)O)cc3C2(C)C)C(C)(C)c2cc(S(=O)(=O)[O-])ccc21

Sequence of trypsin (P00761 9-231): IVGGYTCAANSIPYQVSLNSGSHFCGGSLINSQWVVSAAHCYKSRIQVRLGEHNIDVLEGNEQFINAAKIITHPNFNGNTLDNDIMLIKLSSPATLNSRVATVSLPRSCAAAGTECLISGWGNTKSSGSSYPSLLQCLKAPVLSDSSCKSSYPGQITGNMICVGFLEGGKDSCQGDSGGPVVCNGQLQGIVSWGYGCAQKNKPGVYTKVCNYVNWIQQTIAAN

For the substance “Ac-[dC](X1)[dF][dI][dV][dT][dY][dF][dQ][dD][dN][dT][dD][dD][dN][dD][dF][dK][dE]G[dA][dP][dF][dN][dD][dK][dF][dL][dE][dY]G[dD]G[dE][dF][dK][dK][dI]G[dE][dA][dT]-NH2 [Cy5-RI-MUB40]”, in series [1], the “binding to mucus produced by human cell lines (L174T)” value is “validated”. The “labelling of human neutrophil granules” value in [2] is given as “validated”. Moreover, the “detection of lactoferrin degranulation on living neutrophils” value in the series on living human neutrophils (Shigella flexneri MOI 20, 1 μg/mL, 37°C) is recorded as “transient, dot-shaped fluorescent signals were detected on the cells' surface”. Further, the “crossing of plasma membrane of living cells” value in the series on living human neutrophils (live cells, listed as RI-MUB40-Cy5) is listed as “did not cross the plasma membrane of living cells; also recorded: does not cross plasma membrane of live cells”. Moreover, the “relation of epifluorescent signal to luminol bioluminescent signal” value in series [3] (hind ankle joints, p≤0.0001) was “correlated”. Moreover, the “accumulation of fluorescent signal at inflammatory sites” value in series [3] (i.v. injection, arthritic mice but not naïve controls, day 6) is given as “a fluorescent signal accumulated at inflammatory sites”. For the same substance, in [3] (p≤0.0001, T-test), the “epifluorescent signal, arthritic mice vs controls” value is listed as “significantly higher in arthritic mice compared to controls”. In the series with trypsin, the “degradation by trypsin (in words)” value is recorded as “no degradation”. Moreover, in series [4], the “fluorescent signal accumulation at hind and front inflamed ankles” value was “significantly higher compared to MUB40-Cy5”. Besides, in the series on human colonic mucus, the “labelling of / binding to human colonic mucus” value is “validated”.

For the substance “MUB40-Dylight405: MUB40#1 (SEQ ID NO: 3) labeled with Dylight 405 (CTAEGIKKFEGDGYELFKDNFPAGEKFDNDDTNDQFYTVIF; also: Dylight 405 label (site not given here))”, the “labelling of recruited neutrophils” value in series [5] and in series [6] was “specifically labeled” each time. Also, the “labelling of human neutrophil granules” value in series [2] was “specifically labeled”.
